Experimental data published in PubChem BioAssay (NCI).
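All cell lines were grown in 96-well plates and treated with compound for 48 hours. GI50 = concentration required for 50% inhibition of growth. At the TGI there is no net growth.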

Experiments:
Assay in all cases: NCI anticancer screen, dose series, 48 h
[1] = tested on: NCI-H23 lung
[2] = tested on: HT29 colon
[3] = tested on: SNB-75 CNS
[4] = tested on: HCT-116 colon
[5] = tested on: BT-549 breast
[6] = tested on: RPMI-8226 leukemia
[7] = tested on: HCT-15 colon
[8] = tested on: 786-0 renal
[9] = tested on: KM12 colon
[10] = tested on: NCI-H460 lung

Compound	GI50 [1]	TGI [1]	GI50 [2]	TGI [2]	GI50 [3]	TGI [3]	GI50 [4]	TGI [4]	GI50 [5]	TGI [5]	GI50 [6]	TGI [6]	GI50 [7]	TGI [7]	GI50 [8]	TGI [8]	GI50 [9]	TGI [9]	GI50 [10]	TGI [10]
CCN1[C@@H](C(=O)NC23CCC(C(=O)O)(CC2)CC3)[C@H](c2cccc(Cl)c2F)[C@]2(C(=O)Nc3cc(Cl)ccc32)C12CCCCC2	3.53 µM	17.4 µM	3.06 µM	14.8 µM	1.91 µM	14.8 µM	0.104 µM	3.11 µM	2.28 µM	5.54 µM	2.33 µM	6.61 µM	2.57 µM	12.5 µM	2.94 µM	12.1 µM	3.34 µM	12.7 µM	0.0909 µM	1.45 µM
O=C1/C(=C\c2ccco2)Oc2ccccc21	–	> 100 µM	–	> 100 µM	–	> 100 µM	–	> 100 µM	–	> 100 µM	–	> 100 µM	–	> 100 µM	–	> 100 µM	–	> 100 µM	–	> 100 µM
COc1ccc(-c2nc(-c3nc4cc(Cl)c(F)cc4[nH]3)c3ccccn23)cc1	29.1 µM	> 100 µM	4.26 µM	> 100 µM	5.31 µM	> 100 µM	6.09 µM	> 100 µM	4.91 µM	> 100 µM	3.02 µM	> 100 µM	5.72 µM	> 100 µM	8.94 µM	> 100 µM	4.56 µM	> 100 µM	5.43 µM	> 100 µM
Cc1ccc(S(=O)(=O)c2nc(-c3ccccc3)oc2S(C)(=O)=O)cc1	6.73 µM	22.6 µM	2.81 µM	6.6 µM	6.39 µM	18 µM	1.78 µM	3.25 µM	1.85 µM	3.72 µM	2.33 µM	5.88 µM	1.7 µM	3.31 µM	1.66 µM	3.19 µM	13 µM	27.2 µM	13.3 µM	27.8 µM
O=[N+]([O-])c1cc([As](Br)c2ccc(O)c([N+](=O)[O-])c2)ccc1O	–	4.37 µM	–	25 µM	–	3.62 µM	–	5.54 µM	–	3.84 µM	–	1.28 µM	–	> 20.8 µM	–	4.36 µM	–	4.06 µM	–	> 25.6 µM
CC(C)(C)[Si](C)(C)OC1[C@@H](CNC(N)=O)O[C@@H](n2cnc3c(NC(=O)Nc4ccccc4)ncnc32)[C@H]1O[Si](C)(C)C(C)(C)C (some centres undefined)	1.9 µM	7.83 µM	1.07 µM	2.22 µM	3.73 µM	10.9 µM	0.78 µM	1.45 µM	2.47 µM	9.2 µM	1.12 µM	2.63 µM	2.67 µM	10.3 µM	2.22 µM	8.17 µM	1.09 µM	2.2 µM	1.02 µM	1.98 µM
CSc1ncnc2c1ncn2CC(=O)C1CCC2C3CCC4=CC(=O)CCC4(C)C3CCC12C (centres undefined)	–	35.2 µM	–	> 100 µM	–	27.9 µM	–	59.2 µM	–	9.89 µM	–	5.21 µM	–	> 77.1 µM	–	> 100 µM	–	9.88 µM	–	18.9 µM
CN(C)CCCOc1cccc(NC2=C(Cl)C(=O)C(Nc3cccc(OCCCN(C)C)c3)=C(Cl)C2=O)c1	1.13 µM	2.79 µM	0.56 µM	1.59 µM	1.68 µM	3.6 µM	0.286 µM	0.804 µM	1.57 µM	2.93 µM	1.25 µM	4.54 µM	0.911 µM	2.45 µM	0.763 µM	2.09 µM	1.32 µM	2.73 µM	1.8 µM	3.48 µM
COc1cc(OCc2cccc(-c3ccccc3)c2C)cc(OC)c1CN1CCCCC1C(=O)NCCOCCOCCN (centres undefined)	5.22 µM	19.2 µM	2.38 µM	6.65 µM	2.22 µM	17.7 µM	2.04 µM	4.64 µM	11.5 µM	24.7 µM	2.04 µM	5 µM	3.09 µM	11.1 µM	1.83 µM	3.53 µM	3.2 µM	11.4 µM	1.83 µM	3.73 µM
COc1cc([C@@H]2c3cc4c(cc3[C@H](OC(C)=O)[C@H]3COC(=O)[C@@H]23)OCO4)cc(OC)c1OC	0.333 µM	–	0.343 µM	–	–	> 100 µM	0.29 µM	2.63 µM	0.419 µM	> 68.5 µM	0.445 µM	> 100 µM	0.371 µM	> 100 µM	0.379 µM	> 100 µM	0.298 µM	–	0.322 µM	3.3 µM
ClCc1cccc(Cn2cnc3c(Cl)nc(Cl)nc32)c1	2.14 µM	5.09 µM	2.39 µM	> 100 µM	2.04 µM	3.89 µM	1.64 µM	3.12 µM	1.69 µM	3.23 µM	3.29 µM	> 100 µM	2.41 µM	6.84 µM	12.4 µM	26.8 µM	1.82 µM	3.79 µM	2.36 µM	6.25 µM
COc1cc(OC)c2sc(-c3ccc(-n4cncc4-c4ccc(OC)c(OC)c4)cc3)nc2c1	> 100 µM	> 100 µM	7.13 µM	> 100 µM	7.21 µM	46 µM	5.48 µM	> 100 µM	9.12 µM	> 100 µM	> 100 µM	> 100 µM	> 100 µM	> 100 µM	> 100 µM	> 100 µM	6.8 µM	> 100 µM	6.06 µM	> 100 µM
O=C1c2cccnc2-c2nc(-c3cccnc3)cc3c2c1nc1ccccc13	3.7 µM	20.7 µM	2.52 µM	–	2.34 µM	6.91 µM	2.8 µM	> 32.7 µM	4.53 µM	9.5 µM	2.59 µM	> 100 µM	1.63 µM	4.58 µM	2.74 µM	8.85 µM	4.16 µM	> 44.5 µM	2.16 µM	–
